These results are taken from patent US20090305276A1, “Method for Predicting Skin Sensitizing Activity of Compounds” (priority 2008, published 2009).

Where two headings read alike, the source gives them in different places.

One data set deals with skin. To be noted: cited from earlier work.
The subject of the next data set is AKR. Briefly: AKR (aldo-keto reductase) marker gene expression in cultured mammalian cells. The class given is cell-based. On the set-up: key: The ++ signs indicate positive response and the number represents the magnitude of response; The ++ signs indicate positive response and the number represents the magnitude of response; −−−: The dashed lines indicate no measurable response; −−−−: The dashed lines indicate no measurable response; −−−−−: The dashed lines indicate no measurable response. The following applies: gene marker response, preliminary data. The text has this: (§1) Specifically, chemicals would be placed in an appropriate vehicle such as DMSO and applied to appropriate mammalian cells, such as human keratinocytes (HaCat cells), 3D human skin cells, normal human epithelial cells (NHEK cells), MCF7 cells, H4IIE cells (ATCC Accession #CRL-1548), or combination cultures including keratinocyte and dendritic cells. Following exposure times of 6, 24, and 72 hr the expression levels of several genes that are associated with an increase risk for sensitization type reactions. The expression of key gene markers associated with sensitization that include but are not limited to quinone reductase, IL-8, CD-86, aldo-keto reductase, thioredoxin, and thioredoxin reductase is measured by RT-PCR.
(§2) In specific embodiments, the expression of gene markers is measured. Appropriate gene markers for the methods of the invention include but are not limited to quinone reductase, IL-8, CD-86, aldo-keto reductase, thioredoxin, and thioredoxin reductase. Expression levels may be measured by any appropriate method of measuring gene expression, including but not limited to polymerase chain reaction (PCR), reverse transcriptase PCR (RT-PCR), fluorescent in situ hybridization (FISH), branched DNA (bDNA) assay, differential display, RNA interference, reporter genes, microarrays, and proteomics. For instance, expression levels may be measured by RT-PCR in at least triplicates. The standard protocols for performing RT-PCR may be obtained from Invitrogen, (Carlsbad, Calif.). Standard methods and protocols for measuring gene expression are described in the literature and in treatises such as Sambrook et al., “Molecular Cloning: A Laboratory Manual” and Avison, Matthew, “Measuring Gene Expression,” Taylor and Francis (2006). These protocols are incorporated herein by reference in their entirety.
(§3) As shown in Table 2 (below), preliminary data were collected and used to build the algorithm for predicting the sensitization. NQO1 is quinone reductase; IL-8 is interleukin-8; and AKR is aldo-keto reductase.
(§4) The compounds listed in Table 2 are known skin sensitizers with different magnitudes of effect. In this example, three gene markers are measured to develop a relationship between the magnitude of response, the number of genes responding above about 15%, and the minimum exposure concentration where expression occurred. The ++ signs indicate positive response and the number represents the magnitude of response. The dashed lines indicate no measurable response.

A further data set concerns IL-8. The data set can be described thus: IL-8 (interleukin-8) marker gene expression in cultured mammalian cells. The format is cell-based. On the set-up: key: The ++ signs indicate positive response and the number represents the magnitude of response; The ++ signs indicate positive response and the number represents the magnitude of response; −−−: The dashed lines indicate no measurable response; −−−−: The dashed lines indicate no measurable response; −−−−−: The dashed lines indicate no measurable response. The following applies: gene marker response, preliminary data.
Source text: as §1, §2, §3, §4

Another data set concerns NQO1. The data set can be described thus: NQO1 (quinone reductase) marker gene expression in cultured mammalian cells. The class given is cell-based. Further details: key: The ++ signs indicate positive response and the number represents the magnitude of response; The ++ signs indicate positive response and the number represents the magnitude of response; −−−: The dashed lines indicate no measurable response; −−−−: The dashed lines indicate no measurable response; −−−−−: The dashed lines indicate no measurable response. The following applies: gene marker response, preliminary data.
Source text: as §1, §2, §3, §4

In data set [1] the test system is local draining lymph nodes (lymphocyte proliferation). The following applies: known LLNA data; estimated concentration required to produce a stimulation index of 3; cited from earlier work.
Setting [2] is: known skin sensitizers with different magnitudes of effect.

As for `COc1cc(C=O)ccc1O` [Vanillin], the “Sensitizer Class” value with skin (setting [2]) was “Very Weak”. Besides, the AKR entry in the data set on AKR was “−−−−”. Moreover, the IL-8 result with IL-8 is recorded as “−−−−”. For the same compound, in the data set with NQO1, the NQO1 entry is given as “+”.
For `O=C(C=Cc1ccccc1)OCc1ccccc1` [Benzyl Cinnamate], the AKR entry in the data set with AKR is reported as “++”. Besides, the IL-8 result with IL-8 is on record as “−−−”. Moreover, in the data set on NQO1, the NQO1 entry is on record as “++”.
As for `O=C(Oc1ccccc1)c1ccccc1` [Phenyl Benzoate], the “Sensitizer Class” value with skin (setting [2]) is “Weak”. For the same compound, the “LLNA E3C” value in data set [1] is 863. Also, the AKR entry in the data set with AKR was “−−−−”. Besides, the IL-8 result in the data set on IL-8 was “+”. Moreover, in the data set with NQO1, the NQO1 entry is “+”.
As for `CC=Cc1ccc(O)c(OC)c1` [Isoeugenol], in the data set with skin (setting [2]), the “Sensitizer Class” value is on record as “Moderate”. Further, in data set [1], the “LLNA E3C” value is on record as 110. Moreover, in the data set on AKR, the AKR result is given as “++”. In the data set with IL-8, the IL-8 entry is reported as “+”. Besides, the NQO1 result in the data set with NQO1 is on record as “+”.
Consider `O=C1OC(=O)c2ccccc21` [Phthalic Anhydride], for which the “Sensitizer Class” value in the data set with skin (setting [2]) was “Strong”. Further, the “LLNA E3C” value in data set [1] is listed as 10.8. In addition, the AKR result with AKR is “++”. Moreover, in the data set with IL-8, the IL-8 result was “+”. For the same compound, the NQO1 entry with NQO1 is reported as “++”.
In the case of `O=C(O)c1ccccc1` [Benzoic Acid], the “Sensitizer Class” value in the data set with skin (setting [2]) is given as “Non-”. Moreover, the AKR entry in the data set on AKR is given as “−−−−−”. Besides, the IL-8 result in the data set on IL-8 is “−−−−−”. Also, in the data set on NQO1, the NQO1 entry is on record as “−−−−”.
For the compound `CCCOC(=O)c1cc(O)c(O)c(O)c1` [Propyl Gallate], the “Sensitizer Class” value in the data set with skin (in vivo) was “Strong”. The “LLNA E3C” value in data set [1] was 15.09. The AKR result with AKR was “++”. Moreover, in the data set with IL-8, the IL-8 result is “++”. For the same compound, in the data set with NQO1, the NQO1 entry is listed as “++”.
